How the values were obtained:
[1] = molecular target: T1, human melanopsin (Homo sapiens, UniProt Q9UHM6); set-up: the C-terminal amino acid residues (94, 140, 200, 214, 296, and 308 residues); expressed in transfected cells; method as in PMID 23974117; details: CHO cells; calcium imaging; 9-cis-retinal incubation several minutes; read-out: IC50 reported in the previous study; cited from earlier work
T1 sequence (Q9UHM6 1-384 limits assumed): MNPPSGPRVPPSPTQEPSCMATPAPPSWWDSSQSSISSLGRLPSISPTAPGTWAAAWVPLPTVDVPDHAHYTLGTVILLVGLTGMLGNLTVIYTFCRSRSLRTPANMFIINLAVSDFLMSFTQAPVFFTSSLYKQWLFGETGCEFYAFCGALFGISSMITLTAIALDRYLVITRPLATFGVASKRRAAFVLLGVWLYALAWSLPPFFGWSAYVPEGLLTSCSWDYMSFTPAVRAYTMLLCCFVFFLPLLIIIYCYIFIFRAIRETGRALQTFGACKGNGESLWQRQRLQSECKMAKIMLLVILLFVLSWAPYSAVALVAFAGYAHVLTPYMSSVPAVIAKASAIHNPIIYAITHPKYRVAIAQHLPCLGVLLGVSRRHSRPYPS

[2] = molecular target: T1, human melanopsin; assay: GloSensor cAMP assay via endogenous G proteins; assay type: cell-based; set-up: the C-terminal amino acid residues (94, 140, 200, 214, 296, and 308 residues); expressed in transfected cells; host or cells: COS-1; details: COS-1 cells, no exogenous G protein
[3] = molecular target: T2, mouse melanopsin WT (Mus musculus, UniProt Q9QXZ9); assay: GsX GloSensor assay with Gsα/q11; assay type: cell-based; details: COS-1 cells
T2 construct: expressed in transfected cells; host or cells: COS-1
T2 sequence (Q9QXZ9 1-381 limits assumed): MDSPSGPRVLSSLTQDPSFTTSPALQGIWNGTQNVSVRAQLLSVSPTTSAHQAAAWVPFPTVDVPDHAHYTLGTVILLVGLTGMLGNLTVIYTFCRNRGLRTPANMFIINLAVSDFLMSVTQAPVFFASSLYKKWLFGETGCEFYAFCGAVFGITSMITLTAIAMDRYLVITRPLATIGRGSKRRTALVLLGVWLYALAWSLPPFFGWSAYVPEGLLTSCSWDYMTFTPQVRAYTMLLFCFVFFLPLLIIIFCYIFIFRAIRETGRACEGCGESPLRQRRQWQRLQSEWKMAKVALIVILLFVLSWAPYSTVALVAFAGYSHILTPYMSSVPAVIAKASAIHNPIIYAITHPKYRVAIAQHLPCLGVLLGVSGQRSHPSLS
Description: To quantify the antagonistic effects of AA92593 on mammalian melanopsins, we used the GsX GloSensor assay ([12], [13], [14]). This assay measures GPCR-induced increases in intracellular cAMP levels even for Gq-, Gi/o-, or G12-coupled receptors by using Gsα chimeras ([12], [13], [14]). Because melanopsin is primarily coupled with Gq-type G proteins, a Gsα mutant with 11 C-terminal sequence of Gqα (Gsα/q11) was expressed in COS-1 cells with melanopsin and a luciferase-based cAMP biosensor (see “Experimental procedures”) ([15]). This assay enables the measurement of Gq activation by melanopsin as cAMP production (an increase in luminescence). In this study, we used C-terminal–truncated melanopsin constructs to increase the expression levels with minimal compromise in functionality ([9], [16], [17], [18], [19]). […] In addition, the C-terminal region is located far from the binding site of AA92593 (see below). Hereafter, the C-terminal–truncated melanopsin constructs are named as “WT.”
In the constructs for melanopsin expression (opsin name - GenBank ID: human melanopsin - NM_033282.4, mouse melanopsin - NM_013887.2, Xenopus Opn4x - NM_001085674.1, chicken opn4-1 - NM_001397961.1, B. belcheri melanopsin - AB205400.1, and B. lanceolatum melanopsin - MF464477.1), the C-terminal amino acid residues (94, 140, 200, 214, 296, and 308 residues for human ([9]), mouse ([9]), Xenopus, chicken, belcheri ([16]), and lanceolatum melanopsins, respectively) were removed, the 1D4 tag sequence (ETSQVAPA) was added, and inserted into the EcoRI/NotI site in a mammalian expression vector pMT. Jumping spider rhodopsin-1 (GenBank ID: AB251846.1) was also added with the 1D4 tag and inserted into pMT vector. Human and mouse melanopsins, and jumping spider rhodopsin-1 in pCDNA3.1 were kindly provided from Drs. Akihisa Terakita and Mitsumasa Koyanagi (Osaka Metropolitan University). In this paper, each opsin with the C-terminal sequence modifications as described above is denoted “WT.” Bovine Gsα and its mutants Gsα/q11 and Gsα/i11 (C-terminal 11 residues are replaced with Gqα and Giα, respectively) were also inserted into the pMT vector. The GFP-tagged melanopsin constructs, in which EGFP protein fused with C-termini of melanopsins, were prepared as previously described ([9], [50]). […]
For GloSensor assay, opsins, GloSensor assay sensor (coded by pGlo-22F), and NanoBiT-tagged G proteins were transiently expressed in COS-1 cells (kindly provided from Dr David Farrens, Oregon Health and Science University) using PEI as described previously ([24], [52]). […] For GFP-fluorescence microscopy, a 35-mm cell culture dish (IWAKI) was transfected with 2 μg melanopsin-GFP plasmid and 8 μg PEI in 400 μl Opti-mem and 1.2 ml D-MEM. […]

[4] = relative peak cAMP response vs no AA92593

COc1ccc(S(=O)(=O)N2CCCCC2)cc1C [AA92593]
IC50 [1]: 665 nM
effect on endogenous G protein-induced cAMP responses [2]: inhibited
Hill fitting parameter rate of dose-response curve [3]: −1.15 ± 0.18
IC50 ([3]; 0.1 μM 9-cis-retinal, white light 10 s, n = 3, read-out: IC50, reduction in peak cAMP responses upon Gsα/q11 activation): 2980 ± 580 nM
Hill fitting parameter max of dose-response curve [3, 4]: 98.86 ± 1.11
Hill fitting parameter min of dose-response curve [3, 4]: 46.53 ± 4.15
